Data taken from patent US9724334B1, “Method for treating a neurodegenerative disease or depression comprising administering derivatives of 2-amino-2-(1-dodecyl-1H-1,2,3-triazol-4-yl)propane-1,3-diol” (Kyungpook National University Industry-Academic Cooperation …, priority 2016, dated 2017).

Molecular target: T1, ASM (acid sphingomyelinase) (Homo sapiens, UniProt P17405)
T1 construct: fibroblasts (PS1 fibroblasts) derived from Alzheimer's disease patients, followed by the measurement of the change of ASM activity; host or cells: human fibroblast cell lines (PS1, from Alzheimer's disease patients)
T1 sequence (P17405 47-631): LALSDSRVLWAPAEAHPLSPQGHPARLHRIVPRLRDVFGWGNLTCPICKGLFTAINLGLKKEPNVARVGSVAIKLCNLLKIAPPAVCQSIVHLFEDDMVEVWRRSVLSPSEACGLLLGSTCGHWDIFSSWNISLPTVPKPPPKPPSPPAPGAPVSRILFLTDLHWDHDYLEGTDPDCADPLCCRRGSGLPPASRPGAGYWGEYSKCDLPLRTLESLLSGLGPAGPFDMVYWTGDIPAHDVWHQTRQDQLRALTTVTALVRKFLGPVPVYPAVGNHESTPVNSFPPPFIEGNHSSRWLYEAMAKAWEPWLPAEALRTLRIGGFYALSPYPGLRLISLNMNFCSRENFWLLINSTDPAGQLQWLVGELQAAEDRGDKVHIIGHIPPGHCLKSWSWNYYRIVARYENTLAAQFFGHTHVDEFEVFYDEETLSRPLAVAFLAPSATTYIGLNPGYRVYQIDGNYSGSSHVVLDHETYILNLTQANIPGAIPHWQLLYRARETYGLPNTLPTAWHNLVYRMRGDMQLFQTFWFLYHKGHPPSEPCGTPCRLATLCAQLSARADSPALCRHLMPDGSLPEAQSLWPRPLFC
Experiment: ASM activity in fibroblasts derived from Alzheimer's disease patients (PS1 fibroblasts)
Type: cell-based
Set-up: dose or concentration left out as unconfirmed
Settings: PS1 fibroblasts with increased ASM activity; versus untreated PS1 fibroblasts
Experimental: Human fibroblast cell lines (normal and PS1) were obtained from Coriell Institute and cultured in DMEM containing 15% FBS under the condition of 5% CO2 at 37° C. Subsequently, the cell lines were treated with the ASM inhibitory compound of the Chemical Formula 1, amitriptyline (AMI) and FTY720, followed by measuring the change of ASM activity. The concentration levels of ASM were measured as follows. Specifically, a microliter mouse plasma, brain tissue and 3 μl of fibroblast samples were mixed with ASM activity buffer and stored at 37° C. 114 μl of ethanol was added to terminate the hydrolysis reaction, followed by centrifugation. 30 μl of the supernatant was transferred to a glass vial, of which 5 μl was applied to the UPLC system. The ASM concentration levels were quantified by comparison with Bodipy (aminoacetaldehyde) conjugated with sphingomyelin and ceramide. Extraction and quantification of the sphingomyelin and ceramide were performed by extracting lipids from known method samples and resuspending the dried lipid extract in 25 μl of 0.2% Igepal CA-630 (Sigma-Aldrich). Each lipid level was quantified using the UPLC system. In order to confirm the ASM inhibitory effect of the compound developed according to the present invention, the ASM inhibitory compound of the Chemical Formula 2, AMI and FTY720 were treated […] concentration, respectively, in the fibroblasts (PS1 fibroblasts) derived from Alzheimer's disease patients, followed by the measurement of the change of ASM activity.

- change of ASM activity: markedly reduced
SMILES: CCCCCCCCc1ccc(CCC(N)(CO)CO)cc1 [FTY720, reference compound]
